Results from paper PMC6222422, “Synthesis and Biological Evaluation of Novel Indole-Derived Thioureas” (Molecules : A Journal of Synthetic Chemistry and Natural …, 2018).

Columns and labels:
[1] = system: HIV-1; experiment: microbe, parasite or virus in culture; settings: Human immunodeficiency virus 1, MT4, read-out: HIV-1 EC50
[2] = system: VV; experiment: microbe, parasite or virus in culture; format: cell-based; settings: Orthopoxvirus vaccinia, Vero 76, read-out: VV EC50
[3] = system: Reo-1; experiment: microbe, parasite or virus in culture; format: cell-based, reovirus type-1; settings: Reovirus sp., BHK, read-out: Reo-1 EC50
[4] = in vitro; settings: African green monkey (Cercopithecus aethiops)
[5] = in vitro; settings: human
[6] = in vitro; settings: cattle (Bos taurus)
[7] = system: HSV-1; experiment: microbe, parasite or virus in culture; format: cell-based, human herpes 1; settings: Human alphaherpesvirus 1, Vero 76, read-out: HSV-1 EC50
[8] = system: CV-B5; experiment: microbe, parasite or virus in culture; format: cell-based, coxsackievirus B5; settings: Enterovirus B, CVB5, Vero 76, read-out: CV-B5 EC50
[9] = system: RSV; experiment: microbe, parasite or virus in culture; format: cell-based, human respiratory syncytial virus; settings: human respiratory syncytial virus, Vero 76, read-out: RSV EC50
[10] = system: VSV; experiment: microbe, parasite or virus in culture; format: cell-based; settings: Vesicular stomatitis virus, Vero 76, read-out: VSV EC50
[11] = system: BVDV; experiment: microbe, parasite or virus in culture; format: cell-based, bovine viral diarrhoea virus; settings: for EC50: Bovine viral diarrhea virus isolates and strains, MDBK, in Bos taurus, read-out: BVDV EC50
[12] = system: YFV; experiment: microbe, parasite or virus in culture; format: cell-based; settings: Yellow fever virus, BHK, read-out: YFV EC50
[13] = in vitro; settings: Syrian hamster (Mesocricetus auratus)
[14] = system: Sb-1; experiment: microbe, parasite or virus in culture; format: cell-based, poliovirus type-1; settings: Enterovirus C, Vero 76, read-out: Sb-1 EC50

Row | Structure (SMILES) | EC50 [1] | EC50 [2] | EC50 [3] | CC50 [4] | CC50 [5] | CC50 [6] | EC50 [7] | EC50 [8] | EC50 [9] | EC50 [10] | activity against BVDV (in words) [11] | EC50 [11] | melting point | EC50 [12] | CC50 [13] | EC50 [14]
1 | S=C(NCCc1c[nH]c2ccccc12)Nc1cccc(Br)c1 [Compound 7, 1-(2-(1H-Indol-3-yl)ethyl)-3-(3-bromophenyl)thiourea] | > 45 µM | > 12 µM | > 10 µM | 12 µM | 45 µM | 55 µM | > 12 µM | > 12 µM | > 12 µM | > 12 µM | showed activity | 20 ± 2 µM | 152 to 154 °C | > 10 µM | 10 µM | > 12 µM
2 | S=C(NCCc1c[nH]c2ccccc12)NCc1ccccc1 [Compound 10, 1-(2-(1H-Indol-3-yl)ethyl)-3-benzylthiourea] | > 78 µM | > 100 µM | > 52 µM | > 100 µM | 78 µM | > 100 µM | > 100 µM | 30 ± 2.4 µM | > 100 µM | > 100 µM | – | > 100 µM | – | > 52 µM | 52 µM | > 100 µM
3 | Fc1ccccc1NC(=S)NCCc1c[nH]c2ccccc12 [Compound 11, 1-(2-(1H-Indol-3-yl)ethyl)-3-(2-fluorophenyl)thiourea] | > 48 µM | > 73 µM | > 34 µM | 73 µM | 48 µM | 69 µM | > 73 µM | > 73 µM | > 73 µM | > 73 µM | – | > 69 µM | 167 to 168 °C | > 34 µM | 34 µM | > 73 µM
4 | Fc1cccc(NC(=S)NCCc2c[nH]c3ccccc23)c1 [Compound 12, 1-(2-(1H-Indol-3-yl)ethyl)-3-(3-fluorophenyl)thiourea] | > 47 µM | > 60 µM | > 16 µM | 60 µM | 47 µM | 49 µM | > 60 µM | > 60 µM | > 60 µM | > 60 µM | – | > 49 µM | 162 to 164 °C | > 16 µM | 16 µM | > 60 µM
5 | S=C(NCCc1c[nH]c2ccccc12)Nc1ccccc1Cl [Compound 13, 1-(2-(1H-Indol-3-yl)ethyl)-3-(2-chlorophenyl)thiourea] | > 47 µM | > 53 µM | > 11 µM | 53 µM | 47 µM | 49 µM | > 53 µM | 12 ± 0.9 µM | > 53 µM | > 53 µM | – | > 49 µM | 170 to 172 °C | > 11 µM | 11 µM | > 53 µM
6 | Fc1ccc(NC(=S)NCCc2c[nH]c3ccccc23)cc1 [Compound 17, 1-(2-(1H-Indol-3-yl)ethyl)-3-(4-fluorophenyl)thiourea] | > 44 µM | > 53 µM | > 30 µM | 53 µM | 44 µM | 53 µM | > 53 µM | > 53 µM | > 53 µM | > 53 µM | – | > 53 µM | – | > 30 µM | 30 µM | > 53 µM
7 | Cc1ccc(NC(=S)NCCc2c[nH]c3ccccc23)cc1Cl [Compound 23, 1-(2-(1H-Indol-3-yl)ethyl)-3-(3-chloro-4-methylphenyl)thiourea] | > 44 µM | > 17 µM | > 10 µM | 17 µM | 44 µM | 25 µM | > 17 µM | > 17 µM | > 17 µM | > 17 µM | – | > 25 µM | 161 to 163 °C | > 10 µM | 10 µM | > 17 µM
8 | FC(F)(F)c1cccc(NC(=S)NCCc2c[nH]c3ccccc23)c1 [Compound 24, 1-(2-(1H-Indol-3-yl)ethyl)-3-(3-(trifluoromethyl)phenyl)thiourea] | > 44 µM | > 16 µM | > 9 µM | 16 µM | 44 µM | 23 µM | > 16 µM | > 16 µM | > 16 µM | > 16 µM | – | > 23 µM | 169 to 171 °C | > 9 µM | 9 µM | > 16 µM
9 | Cc1ccc(Cl)cc1NC(=S)NCCc1c[nH]c2ccccc12 [Compound 26, 1-(2-(1H-Indol-3-yl)ethyl)-3-(3-chloro-6-methylphenyl)thiourea] | > 45 µM | > 17 µM | > 12 µM | 17 µM | 45 µM | 42 µM | > 17 µM | > 17 µM | > 17 µM | > 17 µM | showed activity | 15 ± 1.2 µM | 163 to 165 °C | > 12 µM | 12 µM | > 17 µM
10 | CCCCc1ccc(NC(=S)NCCc2c[nH]c3ccccc23)c(C)c1 [Compound 27, 1-(2-(1H-Indol-3-yl)ethyl)-3-(4-butyl-2-methylphenyl)thiourea] | > 45 µM | > 12 µM | > 9.5 µM | 12 µM | 45 µM | 11 µM | > 12 µM | > 12 µM | > 12 µM | > 12 µM | – | > 11 µM | 172 to 174 °C | > 9.5 µM | 9.5 µM | > 12 µM
11 | Fc1ccc(NC(=S)NCCc2c[nH]c3ccccc23)cc1Cl [Compound 28, 1-(2-(1H-Indol-3-yl)ethyl)-3-(3-chloro-4-fluorophenyl)thiourea] | > 45 µM | > 32 µM | > 30 µM | 32 µM | 45 µM | 37 µM | > 32 µM | 20 ± 2.1 µM | > 32 µM | > 32 µM | showed activity | 13 ± 1.2 µM | 162 to 164 °C | > 30 µM | 30 µM | > 32 µM
